Assay results published in article PMC9271792 (Frontiers in Endocrinology, 2022).
Entries after “also recorded” stand apart in the source; their conditions may differ.

Assays:
NIH3T3-L1 adipocytes = assay: Glucose uptake assay (2-deoxyglucose); type: cell-based; conditions: paired T-test; n = at least 3
Method: NIH3T3-L1 myoblasts (up to passage 20) grown in DMEM supplemented with 10% newborn calf serum, 2mM L-glutamine, 100 U/l penicillin, 100 µg/L streptomycin at 37°C were seeded into 24-well plates at 5 x 10^3 cells/well and grown for 8 days to confluence. They were then differentiated into adipocytes as described in Govers et al. ([51]). After differentiation the NIH3T3-L1 cells express 37,000 IGF-1R and 250,000 IR per cell ([52]). […] Briefly, 3T3-L1 adipocytes were serum starved in SFM/1% BSA for 4 h, washed twice with Krebs-Ringer phosphate buffer (KRP; 12.5mM HEPES, 120mM NaCl, 6mM KCl, 1.2mM MgSO4, 1mM CaCl2, 0.4mM Na2HPO4, 0.6mM Na2HPO4 (pH7.4)) containing 1% BSA and incubated for 15min at 37°C. […] For the final 10 min 2-deoxyglucose (DOG) uptake was initiated by the addition of 50 µM cold deoxyglucose and 1 µCi ^3H –deoxyglucose per well. The assay was terminated by rapidly washing the cells three times with ice-cold KRP buffer. Cells were solubilized in 0.5 M NaOH/0.1% SDS and ^3H content was determined by scintillation counting. Nonspecific 2-DOG uptake was determined in the presence of 50μM cytochalasin B. Assays were performed in triplicate in at least three independent experiments.

[1] = test system: L6 rat skeletal myoblasts overexpressing human IR-A (L6 IR-A cells); assay: DNA synthesis assay (EdU incorporation); type: cell-based; conditions: 18 h, 0.01 - 300 nM, compared to native insulin
Method: (§1) Assays were performed in triplicate in at least three independent experiments.

C57BL6 male mice = assay: Insulin tolerance test; type: in vivo, mouse; conditions: 0.75 IU/kg ip
[2] = test system: ERK 1 / ERK 2 / p90RSK phosphorylation in L6 IR-A cells; assay: Western blot dose-response, MAPK pathway (ERK1, ERK2, p90RSK), L6 IR-A; type: cell-based, rat cells; human IR-A
Method: (§5) R/^-IR-B (80,000 cells/well) or L6 IR-A cells (240,000 cells/well) were seeded in 6-well plates and allowed to grow to confluence (~ 48 hours). Prior to stimulation, cells were serum starved in SFM/1% BSA for 4 h. […] Lysates were scraped from the well, spun at 13,000 rpm for 3 min at 0°C to remove cell debris and stored at -80°C. Lysate protein concentrations were quantified using Bio-Rad DC™ Protein Assay and 20μg of each sample was separated in 10% glycine gels under reducing conditions. Transferred blots were blocked for 1 h at room temperature in TBST containing 3% BSA and probed with primary antibodies (Pathscan Antibody, pAkt(Thr308), pGSK(Ser9), pAS160(Thr642)) in blocking solution (TBST containing 3% BSA) overnight at 4°C. All blots were also probed with anti-β-tubulin as a loading control. Blots were washed six times for 5 min each in TBST then probed with either HRP-conjugated (dose-response) or fluorophore-conjugated (time-course) secondary antibodies for 1 hour at room temperature. The washing was then repeated.
(§6) Dose response blots were developed in ECL reagent according to manufacturer’s instruction and imaged in Fujiflim LAS-4000 Luminescent Image Analyzer. […] All blots were performed at least three times. All data were analysed with LI-COR Image Studio™ software and each band intensity was normalized to tubulin of its respective lane.

[3] = test system: Akt / GSK-3β / S6 / AS160 phosphorylation in L6 IR-A cells; assay: Western blot dose-response, PI3K/Akt pathway (Akt, GSK-3β, S6, AS160), L6 IR-A; type: cell-based, rat cells; human IR-A
Method: as §5, §6

[4] = test system: ERK 1 / ERK 2 / p90RSK phosphorylation in R^-IR-B cells; assay: Western blot dose-response, MAPK pathway, R-IR-B fibroblasts; type: cell-based, mouse cells; human IR-B; conditions: 0.1–100 nM, 10 min, 2-way ANOVA
Method: (§7) R/^-IR-B (80,000 cells/well) or L6 IR-A cells (240,000 cells/well) were seeded in 6-well plates and allowed to grow to confluence (~ 48 hours). Prior to stimulation, cells were serum starved in SFM/1% BSA for 4 h. […] Lysates were scraped from the well, spun at 13,000 rpm for 3 min at 0°C to remove cell debris and stored at -80°C. Lysate protein concentrations were quantified using Bio-Rad DC™ Protein Assay and 20μg of each sample was separated in 10% glycine gels under reducing conditions. Transferred blots were blocked for 1 h at room temperature in TBST containing 3% BSA and probed with primary antibodies (Pathscan Antibody, pAkt(Thr308), pGSK(Ser9), pAS160(Thr642)) in blocking solution (TBST containing 3% BSA) overnight at 4°C. […]
(§8) Phosphorylation levels are expressed as percentage of level detected […]
(§9) were determined via 2-way ANOVA (bars above graph); difference comparing each stimulating concentration (pink asterisks) were further analyzed using Holm-Sidak test. ns: non-significant; * (P ≤ 0.05), ** (P ≤ 0.01); *** (P ≤ 0.001); **** (P ≤ 0.0001).

[5] = test system: Akt / GSK-3β / S6 / AS160 phosphorylation in R^-IR-B cells; assay: Western blot dose-response, PI3K/Akt pathway, R-IR-B fibroblasts; type: cell-based, mouse cells; human IR-B; conditions: 10 min, significant difference only at 0.1 nM (p* ≤ 0.05 to p** ≤ 0.01)
Method: as §7, §8, §9

[6] = test system: Akt / GSK-3β / S6 phosphorylation in L6 IR-A cells; assay: Western blot time-course, PI3K/Akt pathway, L6 IR-A; type: cell-based, rat cells; human IR-A; conditions: 10 nM, 0–30 min, p-Akt Ser473, p-Akt Thr308, p-GSK3β, p-S6
Method: as §5
(§10) Dose response blots were developed in ECL reagent according to manufacturer’s instruction and imaged in Fujiflim LAS-4000 Luminescent Image Analyzer. Time course blots were imaged with an Odyssey® CLx Imaging System. All blots were performed at least three times. All data were analysed with LI-COR Image Studio™ software and each band intensity was normalized to tubulin of its respective lane.

[7] = test system: ERK 1/2 / p90RSK phosphorylation in L6 IR-A cells; assay: Western blot time-course, MAPK pathway, L6 IR-A; type: cell-based, rat cells; human IR-A; conditions: 10 nM, 0–30 min
Method: as §5, §10

IR-A = IR-A receptor internalization; type: cell-based, human; conditions: 10 nM, 2 hours post-stimulation
Method: (§2) All data are the mean ± S.E.M. n = at least 3 independent experiments. Error bars are shown when greater than the size of the symbols.
as §1

[8] = biological target: T1, IR-A (phospho-Tyr1150/Tyr1151) (Homo sapiens, UniProt P06213); assay: IR-A phosphorylation Tyr1150/Tyr1151 time-course (western blot); type: cell-based; conditions: L6 IR-A, 10 nM, 0–10 min
T1 construct: expressed in transfected cells; host or cells: L6 rat skeletal myoblasts over-expressing human IR-A (hIR-A L6), from Novo Nordisk
Excerpt: as §2

IRS-1 in L6 IR-A cells = assay: IRS-1 activation time-course (immunoprecipitation, pTyr20); type: cell-based, rat cells; human IR-A; conditions: 10 nM
Method: (§3) Figure 6 Cis-dicarba analogues are incapable of promoting IR-A internalization due to inability to promote phosphorylation of IR-A, IRS-1 and Shc. […] Data are presented as % of surface receptor/total receptor followed by normalisation with % of surface receptor in SFM at t = 0; i.e. SFM at t = 0 is equivalent to 100%. […] All data are the mean ± S.E.M. n = at least 3 independent experiments. Error bars are shown when greater than the size of the symbols. Statistical significance were determined via one-way repeated measures ANOVA followed by Dunnets multiple test.
Activated IRS-1 was determined using immunoprecipitation. Anti-IRS-1 antibody(4ug) was pre incubated with protein G agarose overnight at 4°C before adding to lysates to immunoprecipitate IRS-1 overnight at 4°C. Complexes were washed three times in PBS, boiled under reducing conditions and samples separated on 10% glycine gels. Transferred blots were blocked for 1 h at room temperature in TBST containing 3% BSA and probed with primary antibodies (anti-IRS-1 for total IRS-1 protein, or anti pTyr20 for total phosphorylated protein in immunoprecipitation) in blocking solution (TBST containing 3% BSA) overnight at 4°C. Blots were washed six times for 5 min each in TBST then probed with fluorophore-conjugated secondary antibodies (donkey anti-mouse 680RD and anti- rabbit 800CW) for 1 hour at room temperature. […]

[9] = test system: p52 Shc (phospho-Tyr239/Tyr240) in L6 IR-A cells; assay: p52 Shc phosphorylation time-course (western blot); type: cell-based, rat cells; human IR-A; conditions: 10 nM
Method: as §3
R/^-IR-B (80,000 cells/well) or L6 IR-A cells (240,000 cells/well) were seeded in 6-well plates and allowed to grow to confluence (~ 48 hours). Prior to stimulation, cells were serum starved in SFM/1% BSA for 4 h. […] Lysates were scraped from the well, spun at 13,000 rpm for 3 min at 0°C to remove cell debris and stored at -80°C. Lysate protein concentrations were quantified using Bio-Rad DC™ Protein Assay and 20μg of each sample was separated in 10% glycine gels under reducing conditions. […]
Dose response blots were developed in ECL reagent according to manufacturer’s instruction and imaged in Fujiflim LAS-4000 Luminescent Image Analyzer. […] All data were analysed with LI-COR Image Studio™ software and each band intensity was normalized to tubulin of its respective lane.

IR isoform B (IR-B) = biological target: T2, IR isoform B (IR-B) (Homo sapiens, UniProt P06213); conditions: cis dicarba insulin, footnote b, ref [9], cited from earlier work
T2 construct: expressed in transfected cells; host or cells: R-IR-B cells (IGF-1R knockout mouse embryonic fibroblasts over-expressing human IR-B); Triton X-100 lysate captured on anti-IR antibody 83-7

IGF-1R [10] = biological target: T3, IGF-1R (Homo sapiens, UniProt P08069); conditions: cis dicarba insulin, footnote b; ref [9]; cited from earlier work
T3 construct: expressed in transfected cells; host or cells: P6 cells (BALB/c3T3 mouse fibroblasts overexpressing human IGF-1R); Triton X-100 lysate captured on anti-IGF-1R antibody 24-31

IGF-1R [11] = biological target: T3, IGF-1R; conditions: ref [9]; cited from earlier work
Excerpt: (§4) This contrasts with cis-dicarba insulin which wa ...

IR-B = conditions: ref [9]; cited from earlier work
Excerpt: as §4

IR [12] = conditions: ref [9], [30]; cited from earlier work
IR [13] = conditions: KIRA; compared to insulin; ref [9]; cited from earlier work
Excerpt: This is similar to the poorly mitogenic S597 peptide, which also promoted slowe ...

mitogenic signalling = conditions: ref [9], [30]; cited from earlier work
metabolic activity = conditions: ref [9], [30]; cited from earlier work
[14] = dose-response, compared to insulin

cis-[Δ^4A6,11]-dicarba human insulin [cis dicarba insulin]
glucose uptake, significance of difference between insulin, cis-dicarba insulin and cis-dicarba glargine (NIH3T3-L1 adipocytes): ns
DNA synthesis, fold reduction in mitogenic potency vs native insulin [1]: ~ 5 fold
blood glucose lowering (in words) (C57BL6 male mice; chow fed mice, non-fasting, 2 hours post-treatment): no statistical difference
blood glucose change, significance vs parent (AUC) (C57BL6 male mice; insulin vs cis-dicarba insulin, glargine vs cis-dicarba glargine, paired T-test, n = 5-6 per group): ns
phosphorylation of ERK 1, ERK 2 and p90RSK (in words) ([2]; 0.1–10 nM, t = 10 min, p* ≤ 0.05 to p**** ≤ 0.0001 vs parent): significantly reduced phosphorylation levels of ERK 1, ERK 2 and p90RSK
p-p90RSK (S380), overall significance vs parent ([2]; L6 IR-A, 0.1–100 nM, 10 min, 2-way ANOVA): * (P ≤ 0.05)
MAPK pathway activation (in words) [2, 14]: significantly less effective than insulin or glargine, respectively, in activating the MAPK pathway; also recorded: significantly less potent at activating the MAPK pathway
Akt phosphorylation at Ser473 (in words) ([3]; L6 IR-A, 10 min, significant difference only at 0.1 nM (p* ≤ 0.05 to p** ≤ 0.01)): generally similar to their parent peptides
PI3K/Akt pathway activation (in words) [3, 14]: equal potency in activating the PI3K/Akt pathway
p-Erk 1 (T202/Y204), overall significance vs parent [4]: * (P ≤ 0.05)
Akt phosphorylation at Ser473 (in words) [5]: generally similar to their parent peptides
kinetics of activation of the PI3K/Akt pathway (in words) [6]: essentially the same
MAPK signalling activation, ERK1/2 and p90RSK (in words) ([7]; compared to parent): lower level of activation of MAPK signalling
ERK 1/2 phosphorylation maximal level (in words) ([7]; compared to parent peptides): never achieved the maximal level attained through stimulation by their corresponding parent peptides
IR-A internalization (in words) (IR-A): significantly impaired ability to promote IR-A internalization, with virtually all receptor remaining on the surface 2 hours post-stimulation; also recorded: ineffective in promoting IR internalisation
IR-A Tyr1150/Tyr1151 phosphorylation (in words) [8]: much slower to stimulate receptor activation; also recorded: reduced kinetics of activation compared to insulin
IR-A Tyr1150/Tyr1151 phosphorylation, response relative to insulin ([8]; % of that of insulin): ~ 20%
IRS-1 activation (in words) (IRS-1 in L6 IR-A cells): significantly less potent in activating both IRS-1 and Shc
IRS-1 activation relative to insulin (IRS-1 in L6 IR-A cells; 0–10 min, compared to insulin): ~ 30%
Shc activation (in words) [9]: significantly less potent in activating both IRS-1 and Shc
Shc activation relative to insulin ([9]; 0–10 min, compared to insulin): ~ 30%
Affinity (% Insulin ± SEM), IR-B (IR isoform B (IR-B); non-statistically significant): 100 % Insulin
IC50 (IR isoform B (IR-B)): 1.07 ± 0.3 nM
Affinity (% Insulin ± SEM), IGF-1R (IGF-1R [10]): ~100 % Insulin
IC50 (IGF-1R [10]): > 300 nM
binding and activation of IGF-1R (in words) (IGF-1R [11]): equipotent to insulin in both binding and activation of IR-B and IGF-1R
binding and activation of IR-B (in words) (IR-B): equipotent to insulin in both binding and activation of IR-B and IGF-1R
IR binding (in words) (IR [12]): binds the IR with equal affinity to insulin
total receptor phosphorylation in kinase receptor activation assay (in words) (IR [13]): almost as potent as insulin in a kinase receptor activation assay
mitogenic response (in words) (mitogenic signalling): poor at activating a mitogenic response
metabolic activity (in words) (metabolic activity): promotes equivalent metabolic activity
